Among the data in patent US20250171438A1 (Agios Pharmaceuticals, Inc., priority 2022, published 2025) are AC50 values, retold here.

For the first test, the target named is T1, human PAH with the R408W mutation (Homo sapiens, UniProt P00439, R408W).
T1 construct: expressed in transfected cells
T1 sequence (P00439 1-452 R408W): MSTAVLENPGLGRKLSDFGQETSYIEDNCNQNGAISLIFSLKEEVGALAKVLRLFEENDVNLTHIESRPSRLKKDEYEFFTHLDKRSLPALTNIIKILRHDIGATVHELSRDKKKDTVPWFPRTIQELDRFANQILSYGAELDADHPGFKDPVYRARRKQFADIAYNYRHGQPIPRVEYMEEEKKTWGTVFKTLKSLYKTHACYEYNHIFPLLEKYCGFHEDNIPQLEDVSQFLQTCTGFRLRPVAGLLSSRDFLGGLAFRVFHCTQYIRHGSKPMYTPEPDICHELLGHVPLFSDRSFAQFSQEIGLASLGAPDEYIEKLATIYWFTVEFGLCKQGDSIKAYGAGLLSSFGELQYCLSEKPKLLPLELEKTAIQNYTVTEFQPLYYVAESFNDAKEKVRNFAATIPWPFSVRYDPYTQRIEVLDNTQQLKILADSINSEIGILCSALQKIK
As to the kind of experiment: Cell Based Phenylalanine Flux Assay. Further details: scale not given here. To be noted: A375 cells expressing human R408W PAH; 24 hrs compound incubation; 13C-Tyrosine by LC-MS; average where tested multiple times; read-out: AC50.
The term AC50 denotes the concentration at which the activity in the assay is half-maximal. Turning to `CN(C)Cc1ccc2c(C(=O)N3CCc4[nH]cnc4[C@H]3c3nc4ccccc4s3)cnn2c1` [Example 1311], the AC50 lay within 500 to 1000 nM. Same read-out and setting: to `O=C(c1nccs1)N1CCc2[nH]cnc2[C@H]1c1nc2cccc(F)c2s1` [Example 1101, (S)-(4-(7-fluorobenzo[d]thiazol-2-yl)-6,7-dihydro-1H-imidazo[4,5-c]pyridin-5(4H)-yl)(thiazol-2-yl)methanone] belongs 500 to 1000 nM. On the same count and under the same terms, the same measure for `O=C(c1cnn2ccccc12)N1CCc2[nH]cnc2[C@@H]1c1nc2ccccc2s1` [Example 1010, (R)-(4-(benzo[d]thiazol-2-yl)-6,7-dihydro-1H-imidazo[4,5-c]pyridin-5(4H)-yl)(pyrazolo[1,5-a]pyridin-3-yl)methanone]: 1000 to 5000 nM; for `O=C(c1nnc(-c2cnn(CC(F)(F)F)c2)o1)N1CCc2[nH]cnc2[C@H]1c1nc2ccccc2s1` [Example 1793, [(4S)-4-(1,3-benzothiazol-2-yl)-1,4,6,7-tetrahydroimidazo[4,5-c]pyridin-5-yl]-[5-[1-(2,2,2-trifluoroethyl)pyrazol-4-yl]-1,3,4-oxadiazol-2-yl]methanone]: below 500 nM; for `Cc1ncoc1C(=O)N1CCc2[nH]cnc2[C@H]1c1nc2ccccc2[nH]1` [Example 993, (S)-(4-(1H-benzo[d]imidazol-2-yl)-6,7-dihydro-1H-imidazo[4,5-c]pyridin-5(4H)-yl)(4-methyloxazol-5-yl)methanone]: below 500 nM. The same measure, in the same setting: the same measure for `C[C@H](O)c1nc(C(F)F)c(C(=O)N2CCc3[nH]cnc3[C@H]2c2nc3c(C(F)(F)F)cccc3s2)o1` [Example 2113, (4-(difluoromethyl)-2-((S)-1-hydroxyethyl)oxazol-5-yl) ((S)-4-(4-(trifluoromethyl)benzo[d]thiazol-2-yl)-6,7-dihydro-1H-imidazo[4,5-c]pyridin-5(4H)-yl)methanone]: below 500 nM; for `O=C(c1cnc(-c2ccc(C(F)(F)F)cn2)s1)N1CCc2[nH]cnc2[C@@H]1c1nc2ccccc2s1` [Example 1350, (R)-(4-(benzo[d]thiazol-2-yl)-6,7-dihydro-1H-imidazo[4,5-c]pyridin-5(4H)-yl)(2-(5-(trifluoromethyl)pyridin-2-yl)thiazol-5-yl)methanone]: 1000 to 5000 nM; for `O=C(c1oc(C2(O)CCC2)nc1C(F)(F)F)N1CCc2[nH]cnc2[C@@H]1c1nc2c(F)cccc2s1` [Example 1638, (R)-(4-(4-fluorobenzo[d]thiazol-2-yl)-6,7-dihydro-1H-imidazo[4,5-c]pyridin-5(4H)-yl)(2-(1-hydroxycyclobutyl)-4-(trifluoromethyl)oxazol-5-yl)methanone]: below 500 nM.

In the case of `Cc1nc(C(C)(C)C)oc1C(=O)N1CCc2[nH]cnc2[C@H]1c1nc2c(F)cccc2s1` [Example 1433], the AC50 is 500 to 1000 nM. Same read-out and setting: the same measure for `O=C(c1nc(Cl)cs1)N1CCc2[nH]cnc2[C@H]1c1nc2cc(F)ccc2s1` [Example 1297]: 500 to 1000 nM; for `C[C@H](O)c1nc(C(F)F)c(C(=O)N2CCc3[nH]cnc3[C@@H]2c2nc3c(F)cccc3s2)o1` [Example 1962, (4-(difluoromethyl)-2-((S)-1-hydroxyethyl)oxazol-5-yl)((R)-4-(4-fluorobenzo[d]thiazol-2-yl)-6,7-dihydro-1H-imidazo[4,5-c]pyridin-5(4H)-yl)methanone]: 1000 to 5000 nM. On the same count and under the same terms, the same measure for `O=C(c1cnc(-c2ccc(F)cc2)o1)N1CCc2[nH]cnc2[C@H]1c1nc2ccccc2s1` [Example 2117]: below 500 nM. With `Cc1cccc2nc([C@@H]3c4nc[nH]c4CCN3C(=O)c3cnco3)sc12` [Example 2179, (S)-(4-(7-methylbenzo[d]thiazol-2-yl)-6,7-dihydro-1H-imidazo[4,5-c]pyridin-5(4H)-yl)(oxazol-5-yl)methanone], the AC50 was below 500 nM. Take `O=C(c1cnco1)N1CCc2[nH]cnc2[C@@H]1c1nc2c(F)cccc2s1` [Example 1224, (R)-(4-(4-fluorobenzo[d]thiazol-2-yl)-6,7-dihydro-1H-imidazo[4,5-c]pyridin-5(4H)-yl)(oxazol-5-yl)methanone]: the AC50 lay in the range of 1000 to 5000 nM. On the same count and under the same terms, to `O=C(c1cnsc1)N1CCc2[nH]cnc2[C@@H]1c1nc2ccccc2s1` [Example 1062, (R)-(4-(benzo[d]thiazol-2-yl)-6,7-dihydro-1H-imidazo[4,5-c]pyridin-5(4H)-yl)(isothiazol-4-yl)methanone] belongs above 5000 nM; to `CC(C)(O)c1nc(Br)c(C(=O)N2CCc3[nH]cnc3[C@@H]2c2nc3ccccc3s2)s1` [Example 2108, (R)-(4-(benzo[d]thiazol-2-yl)-6,7-dihydro-1H-imidazo[4,5-c]pyridin-5(4H)-yl)(4-bromo-2-(2-hydroxypropan-2-yl)thiazol-5-yl)methanone], 1000 to 5000 nM; to `O=C(c1nccs1)N1CCc2[nH]cnc2[C@@H]1c1nc2cccc(F)c2s1` [Example 1102, (R)-(4-(7-fluorobenzo[d]thiazol-2-yl)-6,7-dihydro-1H-imidazo[4,5-c]pyridin-5(4H)-yl)(thiazol-2-yl)methanone], 1000 to 5000 nM. The same measure, in the same setting: to `O=C(c1sc(C2CC2)nc1Cl)N1CCc2[nH]cnc2[C@H]1c1nc2c(F)cccc2s1` [Example 1631] belongs 500 to 1000 nM; to `O=C(c1oc(-c2ccccn2)nc1C(F)F)N1CCc2[nH]cnc2[C@H]1c1nc2c(F)cccc2s1` [Example 1798, (S)-(4-(difluoromethyl)-2-(pyridin-2-yl)oxazol-5-yl)(4-(4-fluorobenzo[d]thiazol-2-yl)-6,7-dihydro-1H-imidazo[4,5-c]pyridin-5(4H)-yl)methanone], below 500 nM. The same measure, in the same setting: the same measure for `Cc1ccc2c(C(=O)N3CCc4[nH]cnc4[C@H]3c3nc4ccccc4s3)cnn2c1` [Example 1087]: 500 to 1000 nM; for `O=C(CCC1CC1)N1CCc2[nH]cnc2[C@@H]1c1nc2ccccc2s1` [Example 1022, (R)-1-(4-(benzo[d]thiazol-2-yl)-6,7-dihydro-1H-imidazo[4,5-c]pyridin-5(4H)-yl)-3-cyclopropylpropan-1-one]: 1000 to 5000 nM. `O=C(CC1CC1(F)F)N1CCc2[nH]cnc2[C@@H]1c1nc2ccccc2s1` (stereo partly drawn) [Example 1272, 1-((R)-4-(benzo[d]thiazol-2-yl)-6,7-dihydro-1H-imidazo[4,5-c]pyridin-5(4H)-yl)-2-(2,2-difluorocyclopropyl)ethenone]: the AC50 is above 5000 nM. Same read-out and setting: to `O=C(c1cnn(C2CC2)c1Cl)N1CCc2[nH]cnc2[C@H]1c1nc2c(F)cccc2s1` [Example 1969] belongs 500 to 1000 nM. Same read-out and setting: the same measure for `O=C(c1ccnn1-c1ccccn1)N1CCc2[nH]cnc2[C@H]1c1nc2c(F)cccc2s1` [Example 1757, (S)-(4-(4-fluorobenzo[d]thiazol-2-yl)-6,7-dihydro-1H-imidazo[4,5-c]pyridin-5(4H)-yl)(1-(pyridin-2-yl)-1H-pyrazol-5-yl)methanone]: 500 to 1000 nM; for `CC(C)(O)c1nc(Br)c(C(=O)N2CCc3[nH]cnc3[C@H]2c2nc3c(F)cccc3s2)o1` [Example 1897, (S)-(4-bromo-2-(2-hydroxypropan-2-yl)oxazol-5-yl)(4-(4-fluorobenzo[d]thiazol-2-yl)-6,7-dihydro-1H-imidazo[4,5-c]pyridin-5(4H)-yl)methanone]: below 500 nM. Take `Cc1nnc(C(=O)N2CCc3[nH]cnc3[C@H]2c2nc3c(F)cccc3s2)o1` [Example 1465, (S)-(4-(4-fluorobenzo[d]thiazol-2-yl)-6,7-dihydro-1H-imidazo[4,5-c]pyridin-5(4H)-yl)(5-methyl-1,3,4-oxadiazol-2-yl)methanone]: the AC50 fell in the range of 500 to 1000 nM.

The same test, now with this note: A375 cells expressing human R408W PAH; 24 hrs with compound; 13C-Tyrosine by LC-MS; average where tested multiple times.
For `COCc1ccc2c(C(=O)N3CCc4[nH]cnc4[C@@H]3c3nc4ccccc4s3)c(C(F)F)nn2c1` (single isomer, unassigned), the AC50 entry is listed as “E, E”.

The test is the same for the next values; noted with them: A375 cells expressing human R408W PAH; 24 hrs with compound; 13C-Tyrosine by LC-MS; average where tested multiple times; read-out: AC50.
`CC(C)(O)c1cc(C(=O)N2CCc3[nH]cnc3C2c2nc3c(F)cccc3s2)[nH]n1` (centres unmarked): the AC50 fell in the range of 1000 to 5000 nM. On the same count and under the same terms, to `O=C(c1cnco1)N1CCc2[nH]cnc2C1c1nc2c(C(F)(F)F)cccc2s1` (centres unmarked) belongs 1000 to 5000 nM; to `O=C(c1ncn2ccccc12)N1CCc2[nH]cnc2C1c1nc2ccc(F)cc2s1` (centres unmarked), 1000 to 5000 nM. With `O=C(c1ncn2ccccc12)N1CCc2[nH]cnc2C1c1nc2ccc(Cl)cc2[nH]1` (centres unmarked), the AC50 was above 5000 nM. Still for that read-out and setting: to `Cc1ccc2c(C(=O)N3CCc4[nH]cnc4C3c3nc4ccc(Cl)cc4[nH]3)cnn2c1` (centres unmarked) belongs 1000 to 5000 nM. The same measure, in the same setting: the same measure for `Cn1nc(C(F)(F)F)nc1C(=O)N1CCc2[nH]cnc2C1c1nc2ccccc2s1` (centres unmarked): 1000 to 5000 nM; for `O=C(c1ccno1)N1CCc2[nH]cnc2C1c1nc2ccc(F)cc2s1` (centres unmarked): 1000 to 5000 nM. The same measure, in the same setting: the same measure for `O=C(c1ncn2ccccc12)N1CCc2[nH]cnc2C1c1nc2ccc(Br)cc2[nH]1` (centres unmarked): 1000 to 5000 nM. As for `Cc1nc(C(C)(C)O)oc1C(=O)N1CC(C)c2[nH]cnc2C1c1nc2c(F)cccc2s1` (centres unmarked), the AC50 was above 5000 nM.

As for `O=C(c1nnc(N2CC(F)C2)o1)N1CCc2[nH]cnc2C1c1nc2ccccc2s1` (centres unmarked), the AC50 was in the range of 1000 to 5000 nM. On the same count and under the same terms, to `O=C(Cc1nncs1)N1CCc2[nH]cnc2[C@H]1c1nc2c(F)cccc2s1` (single isomer, unassigned) belongs 1000 to 5000 nM; to `O=C(c1ncc(Cl)s1)N1CCc2[nH]cnc2C1c1nc2ccc(F)cc2s1` (centres unmarked), above 5000 nM; to `CC(C)(O)Cn1ncc(C(=O)N2CCc3[nH]cnc3C2c2nc3c(F)cccc3s2)c1C(F)F` (centres unmarked), above 5000 nM. Still for that read-out and setting: the same measure for `O=C(Cc1nncs1)N1CCc2[nH]cnc2C1c1nc2ccccc2s1` (centres unmarked): above 5000 nM.
